This is an account of results in US9643969B2, “(aza)indolizine derivative and pharmaceutical use thereof” (KISSEI PHARMACEUTICAL CO., LTD., priority 2010, dated 2017).

Series [1] addresses T1, Xanthine oxidase (from bovine milk) (Bos taurus, UniProt P80457).
T1 construct: Xanthine oxidase (from bovine milk, manufactured by Sigma); purchased Sigma; host or cells: bovine milk
Briefly: Xanthine oxidase inhibitory activity. Type of series: biochemical. The note with it: xanthine 200 μM added at 100 μL/well, 10 minutes at room temperature, absorbance at 290 nm. The protocol:
Xanthine Oxidase Inhibitory Activity
(1) Preparation of Test Compounds
Test compounds were dissolved in dimethyl sulfoxide (DMSO) (manufactured by Wako pure chemical) at 40 mM concentration and then diluted to intended concentrations with phosphate-buffered saline (PBS).
(2) Method of Measurement
Xanthine oxidase (from bovine milk, manufactured by Sigma) was prepared with phosphate-buffered saline (PBS) at 0.02 units/mL, and then the solution was added to 96-well plates at 50 μL/well. In addition, test compounds diluted with PBS were added at 50 μL/well. Xanthine (manufactured by Wako pure chemical) at 200 μM prepared with PBS was added at 100 μL/well, and the reaction was conducted for 10 minutes at room temperature. Absorbance at 290 nm was measured by using a microplate reader SpectraMax Plus 384 (manufactured by Molecular device). The absorbance under a condition without xanthine is 0%, and control without test compounds is 100%. Fifty % inhibitory concentration of a test compound (IC50) was calculated (Table 4). “Ex. No” in the table indicates Example number.

Series [2] is described as follows: Acute toxicity test. Type of series: in vivo. The note with it: 300 mg/kg orally, male ICR mice, 24 hours after administration. Here is the method:
Test compounds of Examples 2 and 12 (300 mg/kg) suspended in 0.5% methylcellulose solution were orally administered to male ICR mice (7-week-old, 5 mice per group), and the general condition during 24 hours after administration was observed.

For series [3], the target named is T2, human URAT1 (Homo sapiens, UniProt Q96S37).
T2 construct: expressed in transfected cells; host or cells: HEK293 cells
T2 sequence (Q96S37 1-553): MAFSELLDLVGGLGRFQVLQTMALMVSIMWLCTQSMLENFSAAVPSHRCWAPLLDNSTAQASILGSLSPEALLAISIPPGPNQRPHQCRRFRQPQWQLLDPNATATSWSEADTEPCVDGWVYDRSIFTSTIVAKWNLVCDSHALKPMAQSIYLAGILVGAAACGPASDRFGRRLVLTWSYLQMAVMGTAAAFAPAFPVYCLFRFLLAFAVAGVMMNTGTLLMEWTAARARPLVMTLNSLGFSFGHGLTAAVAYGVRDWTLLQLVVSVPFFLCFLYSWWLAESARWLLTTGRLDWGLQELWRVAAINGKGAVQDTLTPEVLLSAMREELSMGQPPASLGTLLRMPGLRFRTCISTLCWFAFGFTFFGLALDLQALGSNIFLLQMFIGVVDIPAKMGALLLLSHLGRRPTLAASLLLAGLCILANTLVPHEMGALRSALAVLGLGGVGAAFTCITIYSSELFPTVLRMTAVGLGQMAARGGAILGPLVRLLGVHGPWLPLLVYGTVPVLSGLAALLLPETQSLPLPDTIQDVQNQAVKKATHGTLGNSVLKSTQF
Briefly: Inhibitory activity of uric acid transport with human URAT1-expressing cells. Particulars: 10 μM test compound; URAT1-expressing HEK293 cells; 14C uric acid 50 μM, 2 minutes at 37° C.; read-out: percent inhibition of uric acid uptake. Type of series: cell-based. Here is the method:
Inhibitory Activity of Uric Acid Transport with Human URAT1-Expressing Cells
(1) Cells Used in the Test
URAT1-expressing HEK293 cells (HEK293 cells transfected with vector containing human URAT1 cDNA) and control cells (HEK293 cells transfected with vector alone) were used.
URAT1-expressing cells and control cells were seeded in collagen I-coated 24-well plates (manufactured by BD FALCON) at 1 to 4×10^5 cells/well, and cultured in CO2 incubator (37° C., CO2: 5%) for 1 to 3 days, and then the following measurement of uric acid transport was conducted. In addition, Dulbecco's Modified Eagle Medium (manufactured by Invitrogen) containing 9% fetal bovine serum (manufactured by Invitrogen), antibiotic-antimycotic (manufactured by Invitrogen) and 2 mmol/L L-glutamine were used for the culture.
(2) Preparation of Test Compounds
^14C-labeled uric acid (^14C uric acid) (manufactured by American Radiolabeled Chemicals, Inc.) was dissolved in Hanks' balanced salt solution (HBSS) (manufactured by Invitrogen) to prepare HBSS containing ^14C uric acid at 50 μM. Test compounds were dissolved in DMSO and then diluted to 1000-fold with the prepared HBSS containing ^14C uric acid above to prepare ^14C uric acid solution containing the indicated concentration of test compounds (final concentration of DMSO: 0.1%). ^14C uric acid solution containing 0.1% DMSO was prepared as a control.
(3) Measurement of Uric Acid Transport
After the medium was removed from the plates in which cells were seeded, and 1 mL of HBSS was added to the cells. After the HBSS was removed, 0.3 mL of HBSS was newly added to the cells, which were incubated at 37° C. for 15 minutes. After the HBSS was removed, 0.3 mL of ^14C uric acid solution containing 0.1% DMSO or test compounds was added to the cells, which were then incubated at 37° C. for 2 minutes. After the incubation, the solution was removed, and the cells were washed once with 1 mL of ice-cold phosphate-buffered saline containing 0.2% BSA, and washed twice with 1 mL of ice-cold PBS. After the PBS was removed, the cells were lysed by addition of 0.5 mL of 0.1 mol/L NaOH aqueous solution for each well. The cell lysates (0.3 mL/well) were transferred into glass vials, and mixed with 10 mL of a scintillator (Hionic-Fluor, manufactured by Perkin Elmer). The radioactivity was measured by means of a liquid scintillation counter.
(4) Protein Determination
Protein concentration in the cell lysates was determined by BCA Protein Assay Kit (manufactured by Pierce) and then amount of protein (mg/well) was calculated.
(5) Calculation of the Percent Inhibition of Uric Acid Uptake for Each Compound
Uric acid uptake activity in each well was calculated by the following formula. Uric acid uptake activity (p mol/mg protein)=radioactivity (dpm/well)/[amount of protein (mg/well)×concentration of radioactivity in HBSS containing ^14C uric acid (dpm/p mol)]
Percent inhibition was calculated according to the following formula. Percent inhibition (%)=[1−(B−C)/(A−C)]×100 • A: Uric acid uptake activity in URAT1-expressing HEK293 cells in the presence of 0.1% DMSO • B: Uric acid uptake activity in URAT1-expressing HEK293 cells in the presence of test compounds • C: Uric acid uptake activity in control cells in the presence of 0.1% DMSO (6) Results

Series [4] in a line: Hypouricemic effect (serum uric acid levels in rats). In kind it is in vivo. Particulars: oral administration at 1 mg/kg; male CD (SD) IGS rats; serum at 2 hours after administration. The protocol: (1) Method of Measurement
Test compounds (1 mg/kg) suspended in 0.5% methylcellulose solution were orally administered to overnight fasted male CD (SD) IGS rats (5-week-old, Charles River Japan). At 2 hours after administration, blood was collected under ether anesthesia from abdominal aorta, and serum was separated according to a general method. Serum uric acid levels were determined by use of uric acid measurement kit (Uric acid C-Test Wako: manufactured by Wako pure chemical), and percent decrease in uric acid was calculated according to the formula described below. Percent decrease in uric acid (%)=(Serum uric acid levels in control animals−Serum uric acid levels in animals administered test compounds)×100/Serum uric acid levels in control animals (2) Results

T1 sequence (P80457 whole entry): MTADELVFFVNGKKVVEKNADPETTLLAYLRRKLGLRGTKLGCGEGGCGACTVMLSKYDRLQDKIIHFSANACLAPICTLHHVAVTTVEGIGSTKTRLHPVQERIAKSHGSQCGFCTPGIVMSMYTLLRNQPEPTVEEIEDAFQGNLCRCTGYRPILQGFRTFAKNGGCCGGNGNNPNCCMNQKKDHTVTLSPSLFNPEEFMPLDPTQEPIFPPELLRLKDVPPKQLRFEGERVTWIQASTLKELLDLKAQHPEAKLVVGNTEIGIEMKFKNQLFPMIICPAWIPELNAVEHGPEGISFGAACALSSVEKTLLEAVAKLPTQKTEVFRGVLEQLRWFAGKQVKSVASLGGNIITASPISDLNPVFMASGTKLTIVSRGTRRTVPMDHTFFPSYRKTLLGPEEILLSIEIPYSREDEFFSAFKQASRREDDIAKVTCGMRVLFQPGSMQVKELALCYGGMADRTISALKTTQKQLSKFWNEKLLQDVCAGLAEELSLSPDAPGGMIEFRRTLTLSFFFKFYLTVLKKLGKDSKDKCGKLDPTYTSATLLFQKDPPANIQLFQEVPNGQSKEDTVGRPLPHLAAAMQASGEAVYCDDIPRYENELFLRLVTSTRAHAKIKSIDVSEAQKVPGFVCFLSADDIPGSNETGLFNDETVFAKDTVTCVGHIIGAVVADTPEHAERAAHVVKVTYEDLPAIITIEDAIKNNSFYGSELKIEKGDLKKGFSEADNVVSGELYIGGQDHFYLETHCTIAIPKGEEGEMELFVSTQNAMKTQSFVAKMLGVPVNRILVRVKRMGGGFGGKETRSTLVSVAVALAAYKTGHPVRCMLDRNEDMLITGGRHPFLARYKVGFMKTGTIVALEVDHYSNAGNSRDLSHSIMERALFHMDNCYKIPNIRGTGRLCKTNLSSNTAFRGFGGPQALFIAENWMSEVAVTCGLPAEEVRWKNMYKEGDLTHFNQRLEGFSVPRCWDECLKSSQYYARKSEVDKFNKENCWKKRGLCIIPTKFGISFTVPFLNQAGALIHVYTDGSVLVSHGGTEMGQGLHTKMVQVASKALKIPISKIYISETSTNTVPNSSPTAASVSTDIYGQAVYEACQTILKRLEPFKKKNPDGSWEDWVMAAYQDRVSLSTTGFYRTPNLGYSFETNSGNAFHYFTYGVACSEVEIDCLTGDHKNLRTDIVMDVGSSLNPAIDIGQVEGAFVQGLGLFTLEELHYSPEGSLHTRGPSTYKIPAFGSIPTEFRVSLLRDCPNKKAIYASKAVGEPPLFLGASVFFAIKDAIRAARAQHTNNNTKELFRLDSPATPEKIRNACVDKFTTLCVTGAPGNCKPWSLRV

The term IC50 denotes the concentration that inhibits the measured activity by half. A higher IC50 goes with a need for much substance. Compound `N#Cc1cc(-c2ccc(C(=O)O)cc2)n2ncccc12` [Example 10] had a half-inhibitory concentration (IC50) in series [1] of 12 nM.
As to `N#Cc1cc(-c2ccc(C(=O)O)c(O)c2)c2cccnn12` [Example 2, 4-(7-Cyanopyrrolo[1,2-b]pyridazine-5-yl)-2-hydroxy benzoic acid], half-maximal inhibition in series [1] (IC50) was put at 5 nM. The general condition result in series [2] is given as “no abnormalities in general conditions were observed”.
The inhibition is the drop in the measured response relative to a control, in per cent. For the compound `COc1ccc2c(-c3ccc(C(=O)O)c(O)c3)cc(C#N)n2n1` [Example 6], in series [1], the IC50 is 3 nM. Besides, the inhibition at 10 µM in series [3] is at least 50%.
In the case of `Cc1ccc2c(-c3ccc(C(=O)O)c(O)c3)cc(C#N)n2n1` [Example 3], the IC50 in series [1] amounted to 5 nM. The inhibition at 10 µM in series [3] was at least 50%. Also, the “percent decrease in uric acid” value in series [4] was “not less than 60%”.
Compound `N#Cc1cc(-c2ccc(C(=O)O)c(O)c2)c2ccccn12` [Example 8] had an IC50 in series [1] of 12 nM. For the same compound, the inhibition at 10 µM in series [3] is at least 50%.
Take `N#Cc1cc(-c2ccc(C(=O)O)cc2)c2cccnn12` [Example 1, 4-(7-Cyanopyrrolo[1,2-b]pyridazine-5-yl)benzoic acid]: the IC50 in series [1] was 7 nM.
On to `N#Cc1cn(-c2ccc(C(=O)O)c(O)c2)c2cccnc12` [Example 15, 4-(3-Cyanopyrrolo[3,2-b]pyridine-1-yl)-2-hydroxy benzoic acid], for which, in series [1], the IC50 turned out to be 10 nM.
As for `N#Cc1cc(-c2ccc(C(=O)O)c(O)c2)c2ccc(F)cn12` [Example 9], inhibition in series [1] was half-maximal at 4 nM (IC50). The inhibition at 10 µM in series [3] was at least 50%.
For `Cc1ccnn2c(-c3ccc(C(=O)O)cc3)cc(C#N)c12` [Example 11, 4-(5-Cyano-4-methylpyrrolo[1,2-b]pyridazine-7-yl)benzoic acid], the IC50 in series [1] came out at 10 nM.
`N#Cc1cc(-c2ccc(C(=O)O)cc2)c2ccccn12` [Example 7] gave an IC50 in series [1] of 8 nM.
With `N#Cc1cc(-c2ccc(C(=O)O)c(O)c2)n2ncccc12` [Example 12], half-maximal inhibition in series [1] (IC50) required 4 nM. Besides, the inhibition at 10 µM in series [3] is at least 50%. In addition, the general condition result in series [2] is “no abnormalities in general conditions were observed”.
In the case of `Cc1ccc2c(-c3ccc(C(=O)O)c(O)c3)cc(C#N)n2c1C` [Example 16], the IC50 in series [1] was determined as 13 nM. In series [3], the inhibition at 10 µM was at least 50%.
